The text below walks through data of patent US20250320184A1 (SIRONAX LTD., priority 2022, published 2025).

pIC50: −log10 of the molar value.

For the assay, the target named is T1, SARM1 (50-724) (Homo sapiens, UniProt Q6SZW1).
T1 sequence (Q6SZW1 50-724): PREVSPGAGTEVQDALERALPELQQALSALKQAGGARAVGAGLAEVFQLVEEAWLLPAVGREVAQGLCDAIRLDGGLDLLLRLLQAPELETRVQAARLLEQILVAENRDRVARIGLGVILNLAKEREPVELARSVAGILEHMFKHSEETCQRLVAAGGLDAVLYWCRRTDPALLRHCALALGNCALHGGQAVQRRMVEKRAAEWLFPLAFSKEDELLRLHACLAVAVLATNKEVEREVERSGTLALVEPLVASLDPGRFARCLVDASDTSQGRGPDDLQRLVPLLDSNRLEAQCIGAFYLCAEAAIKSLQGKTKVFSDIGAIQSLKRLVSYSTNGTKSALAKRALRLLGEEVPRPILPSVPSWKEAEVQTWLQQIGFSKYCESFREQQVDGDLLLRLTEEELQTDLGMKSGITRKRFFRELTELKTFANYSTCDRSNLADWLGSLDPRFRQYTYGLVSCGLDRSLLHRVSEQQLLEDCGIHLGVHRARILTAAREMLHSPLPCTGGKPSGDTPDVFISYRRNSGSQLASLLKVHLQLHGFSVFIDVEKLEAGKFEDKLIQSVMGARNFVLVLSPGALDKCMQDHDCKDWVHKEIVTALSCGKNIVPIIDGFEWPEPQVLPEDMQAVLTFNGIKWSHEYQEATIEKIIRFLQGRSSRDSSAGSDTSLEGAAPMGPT
The assay is described as follows: biochemical.
Protocol: An enzymatic assay was performed in a 384-well plate using Dulbecco's phosphate-buffered saline (PBS) as the reaction buffer. […] The reaction was initiated by adding a mixture of 200 μM nicotinamide mononucleotide (NMN) as activator and 100 μM NAD^+ as substrate. After 1 h of incubation at room temperature, the reaction was terminated with 10 times volume of 70% acetonitrile, then centrifuged at 3800 rpm for 10 min.
Molecule `CCC(Nc1ccc2c(c1)C(=O)NCC2)c1nccc(Cl)c1Cl` (racemic) [Example 154, 7-((1-(3,4-dichloropyridin-2-yl)propyl)amino)-3,4-dihydroisoquinolin-1(2H)-one] had a negative-log IC50 (pIC50) of 6.30 to 7.00.

On to `CCC(Nc1ccc2nc[nH]c(=O)c2c1)c1nccc(Cl)c1Cl` (racemic) [Example 155, 6-((1-(3,4-dichloropyridin-2-yl)propyl)amino)quinazolin-4(3H)-one], for which the negative-log IC50 (pIC50) was 6.30 to 7.00.

With `CC(Nc1ccc2nc[nH]c(=O)c2c1)c1ccc(F)c(Cl)c1Cl` (racemic) [Example 156, 6-[1-(2,3-dichloro-4-fluoro-phenyl)ethylamino]-3H-quinazolin-4-one], the pIC50 was more than 7.00.

In the case of `CC(Nc1ccc2c(c1)C(=O)NCN2)c1ccc(F)c(Cl)c1Cl` (racemic) [Example 157, 6-((1-(2,3-dichloro-4-fluorophenyl)ethyl)amino)-2,3-dihydroquinazolin-4(1H)-one], the pIC50 was 6.30 to 7.00.

For `O=C1NCCc2ccc(NS(=O)(=O)N3C[C@@H]4CC[C@H]3C4)cc21` (racemic) [Example 167, N-(1-oxo-1,2,3,4-tetrahydroisoquinolin-7-yl)-2-azabicyclo[2.2.1]heptane-2-sulfonamide], the negative-log IC50 (pIC50) is less than 6.00.

As for `CC1CCCN(S(=O)(=O)Nc2ccc3c(c2)C(=O)NCC3)C1` (racemic) [Example 169, 3-methyl-N-(1-oxo-1,2,3,4-tetrahydroisoquinolin-7-yl)piperidine-1-sulfonamide], the pIC50 is less than 6.00.

Take `Cc1c(F)ccc(C(C)Nc2ccc3cc[nH]c(=O)c3c2)c1Cl` (racemic) [Example 192, 7-[1-(2-chloro-4-fluoro-3-methyl-phenyl)ethylamino]-2H-isoquinolin-1-one]: the negative logarithm of the IC50 (pIC50) is more than 7.00.

Molecule `CC(Nc1ccc2nc[nH]c(=O)c2c1)c1c(Cl)ccc(F)c1Cl` (racemic) [Example 193, 6-((1-(2,6-dichloro-3-fluorophenyl)ethyl)amino)quinazolin-4(3H)-one] had a pIC50 of more than 7.00.

With `CC(Nc1ccc2nc[nH]c(=O)c2c1)c1c(Cl)ccc(Cl)c1Cl` (racemic) [Example 195, 6-((1-(2,3,6-trichlorophenyl)ethyl)amino)quinazolin-4(3H)-one], the pIC50 was more than 7.00.

`CC(Nc1ccc2cn[nH]c(=O)c2c1)c1c(Cl)ccc(Cl)c1Cl` (racemic) [Example 198, 7-((1-(2,3,6-trichlorophenyl)ethyl)amino)phthalazin-1(2H)-one] gave a negative logarithm of the IC50 (pIC50) of more than 7.00.

In turn, `CC(Nc1ccc2cn[nH]c(=O)c2c1)c1cc(F)cc(Cl)c1Cl` (racemic) [Example 200, 7-((1-(2,3-dichloro-5-fluorophenyl)ethyl)amino)phthalazin-1(2H)-one] showed a pIC50 of 6.30 to 7.00.

`CC(Nc1ccc2cc[nH]c(=O)c2c1)c1ccc(F)c(Cl)c1Cl` (racemic) [Example 203, 7-[1-(2,3-dichloro-4-fluoro-phenyl)ethylamino]-2H-isoquinolin-1-one] had a pIC50 of more than 7.00.

`CC(Nc1ccc2cc[nH]c(=O)c2n1)c1cc(F)cc(Cl)c1Cl` (racemic) [Example 205, 2-((1-(2,3-dichloro-5-fluorophenyl)ethyl)amino)-1,7-naphthyridin-8(7H)-one]: the pIC50 is more than 7.00.

Molecule `CC(Nc1ccc2c(c1)NC(=O)C2(C)C)c1nccc(Cl)c1Cl` (racemic) [Example 210, 6-((1-(3,4-dichloropyridin-2-yl)ethyl)amino)-3,3-dimethylindolin-2-one] gave a negative logarithm of the IC50 (pIC50) of more than 7.00.

In the case of `Cc1nc(C(C)Nc2ccc3cc[nH]c(=O)c3c2)sc1C` (racemic) [Example 213, 7-((1-(4,5-dimethylthiazol-2-yl)ethyl)amino)isoquinolin-1(2H)-one], the pIC50 is more than 7.00.

Molecule `CC(Nc1ccc2cc[nH]c(=O)c2c1)c1nn2c(c1Cl)CCC2` (racemic) [Example 221, 7-((1-(3-chloro-5,6-dihydro-4H-pyrrolo[1,2-b]pyrazol-2-yl)ethyl)amino)isoquinolin-1(2H)-one] showed a pIC50 of 6.30 to 7.00.

Turning to `Cc1n[nH]c(=O)c2cc(NC(C)c3c(Cl)ccc(F)c3Cl)ccc12` (racemic) [Example 222, 7-((1-(2,6-dichloro-3-fluorophenyl)ethyl)amino)-4-methylphthalazin-1(2H)-one], the negative logarithm of the IC50 (pIC50) is more than 7.00.

The molecule `Cc1n[nH]c(=O)c2cc(NC(C)c3nc(Cl)c(Cl)s3)ccc12` (racemic) [Example 223, 7-((1-(4,5-dichlorothiazol-2-yl)ethyl)amino)-4-methylphthalazin-1(2H)-one] had a pIC50 of more than 7.00.

As for `CC1(C)C(=O)Nc2cc(NC(CO)c3c(Cl)ccc(F)c3Cl)ccc21` (racemic) [Example 238, 6-((1-(2,6-dichloro-3-fluorophenyl)-2-hydroxyethyl)amino)-3,3-dimethylindolin-2-one], the pIC50 was more than 7.00.

In turn, `CC(Nc1ccc2c(c1)NC(=O)C21CC1)c1nc(Cl)c(Cl)s1` (racemic) [Example 244, 6′-((1-(4,5-dichlorothiazol-2-yl)ethyl)amino)spiro[cyclopropane-1,3′-indolin]-2′-one] showed a negative-log IC50 (pIC50) of more than 7.00.

As to `Cc1n[nH]c(=O)c2cc(NC(CO)c3c(Cl)ccc(F)c3Cl)ccc12` (racemic) [Example 250, 7-[[1-(2,6-dichloro-3-fluoro-phenyl)-2-hydroxy-ethyl]amino]-4-methyl-2H-phthalazin-1-one], the negative-log IC50 (pIC50) is more than 7.00.

`CCC(Nc1ccc2c(Cl)n[nH]c(=O)c2c1)c1nc(Cl)c(Cl)s1` (racemic) [Example 254, 4-chloro-7-[1-(4,5-dichlorothiazol-2-yl)propylamino]-2H-phthalazin-1-one] gave a negative logarithm of the IC50 (pIC50) of more than 7.00.

Regarding `CC1(C)C(=O)Nc2cc(NC(CCO)c3nc(Cl)c(Cl)s3)ccc21` (racemic) [Example 292, 6-((1-(4,5-dichlorothiazol-2-yl)-3-hydroxypropyl)amino)-3,3-dimethylindolin-2-one], the negative-log IC50 (pIC50) is more than 7.00.

`Cc1n[nH]c(=O)c2cc(NC(CCO)c3nc(Cl)c(Cl)s3)ccc12` (racemic) [Example 294] gave a pIC50 of more than 7.00.

`CC(Nc1cc(F)c2ncn(-c3ccn[nH]3)c(=O)c2c1)c1nc(Cl)c(Cl)s1` (racemic) [Example 356rac, 6-((1-(4,5-dichlorothiazol-2-yl)ethyl)amino)-8-fluoro-3-(1H-pyrazol-5-yl)quinazolin-4(3H)-one]: the pIC50 is more than 7.00.

Molecule `CC(Nc1cc(F)c2ncn(-c3nc[nH]n3)c(=O)c2c1)c1nc(Cl)c(Cl)s1` (racemic) [Example 359, 6-((1-(4,5-dichlorothiazol-2-yl)ethyl)amino)-8-fluoro-3-(1H-1,2,4-triazol-3-yl)quinazolin-4(3H)-one] had a negative logarithm of the IC50 (pIC50) of more than 7.00.

In the case of `CC(Nc1cc(F)c2ncn(-c3nncs3)c(=O)c2c1)c1nc(Cl)c(Cl)s1` (racemic) [Example 369, 6-((1-(4,5-dichlorothiazol-2-yl)ethyl)amino)-8-fluoro-3-(1,3,4-thiadiazol-2-yl)quinazolin-4(3H)-one], the negative-log IC50 (pIC50) is more than 7.00.

In the case of `CC(Nc1cc(F)c2ncn(-c3n[nH]cc3Cl)c(=O)c2c1)c1nc(Cl)c(Cl)s1` (racemic) [Example 370, 3-(4-chloro-1H-pyrazol-3-yl)-6-((1-(4,5-dichlorothiazol-2-yl)ethyl)amino)-8-fluoroquinazolin-4(3H)-one], the pIC50 was more than 7.00.

`Cc1cn[nH]c1-n1cnc2c(F)cc(NC(C)c3nc(Cl)c(Cl)s3)cc2c1=O` (racemic) [Example 371, 6-((1-(4,5-dichlorothiazol-2-yl)ethyl)amino)-8-fluoro-3-(4-methyl-1H-pyrazol-5-yl)quinazolin-4(3H)-one] gave a pIC50 of more than 7.00.

`CC(Nc1cc(F)c2ncn(-c3cnn[nH]3)c(=O)c2c1)c1nc(Cl)c(Cl)s1` (racemic) [Example 372, 6-((1-(4,5-dichlorothiazol-2-yl)ethyl)amino)-8-fluoro-3-(1H-1,2,3-triazol-5-yl)quinazolin-4(3H)-one]: the negative-log IC50 (pIC50) was more than 7.00.

Molecule `CC(Nc1cc(F)c2ncn(-c3ncnn3C)c(=O)c2c1)c1nc(Cl)c(Cl)s1` (racemic) [Example 373, 6-((1-(4,5-dichlorothiazol-2-yl)ethyl)amino)-8-fluoro-3-(1-methyl-1H-1,2,4-triazol-5-yl)quinazolin-4(3H)-one] showed a pIC50 of more than 7.00.

With `CC(Nc1cc(F)c2ncn(-c3ncc[nH]3)c(=O)c2c1)c1nc(Cl)c(Cl)s1` (racemic) [Example 375, 6-((1-(4,5-dichlorothiazol-2-yl)ethyl)amino)-8-fluoro-3-(1H-imidazol-2-yl)quinazolin-4(3H)-one], the pIC50 is more than 7.00.

On to `Cc1c(Cl)c(C(C)Nc2ccc3cc[nH]c(=O)c3c2)nn1C` (single isomer, unassigned) [Compound 226A], for which the negative-log IC50 (pIC50) is less than 6.00.

`Cc1c(Cl)c(C(C)Nc2ccc3cc[nH]c(=O)c3c2)nn1C` (single isomer, unassigned) [Compound 226B] gave a negative-log IC50 (pIC50) of more than 7.00.

The molecule `C[C@H](Nc1ccc2c(c1)NC(=O)C2(C)C)c1nc(Cl)c(Cl)s1` (single isomer, unassigned) [Compound 234A] had a negative logarithm of the IC50 (pIC50) of less than 6.00.

On to `C[C@@H](Nc1ccc2c(c1)NC(=O)C2(C)C)c1nc(Cl)c(Cl)s1` (single isomer, unassigned) [Compound 234], for which the negative-log IC50 (pIC50) was more than 7.00.

One may read the pIC50 as −log10 of the IC50, conventionally taken in molar units. High values mean a low IC50, low ones a high IC50.
